Format in all cases: cell-based
Experiment [1] relates to LPS-mediated prostaglandin E2 (PGE2) production in RAW264.7 cells. Briefly: LPS-mediated PGE2 production in RAW264.7 murine macrophage model. Conditions: 12.5 μM test compound, LPS 1 μg/ml, NI = no inhibition; for inhibition at 12.5 µM: Mus musculus, RAW264.7, 6 h. Here is the method:
(§1) THIAA derivatives synthesized in Examples 1-19 were dissolved in dimethyl sufoxide (DMSO) and stored at −20° C. LPS was purchased from Sigma Chemicals (St. Louis, Miss.).
(§2) The effect of the THIAA derivatives on LPS-mediated prostaglandin E2 (PGE2) and nitric oxide (NO) production was evaluated in a RAW264.7 murine macrophage model. The RAW 264.7 cell line was purchased from ATCC (Manassas, Va.) and maintained according to their instructions. Cells were grown and subcultured in 96-well plates at a density of 8×10^4 cells per well, and reached 80-90% confluence the next day. THIAA derivatives were added to the cells in serum-free medium at a final concentration of 0.1% DMSO. Following one hour of incubation with the THIAA derivatives, LPS (1 μg/ml) or DMEM medium alone was added to the cells and incubation was continued for 6 hours. Stimulation of RAW 264.7 cells with LPS (1 μg/ml) for 6 hours activated the production of PGE2 and NO. Supernatant media was collected for measurement of PGE2 levels. For NO, incubations were continued overnight. Supernatant media was collected for measurement of NO levels after 16 hours of stimulation. PGE2 levels were measured using assay kits from Assay Designs, (Ann Arbor, Mich.) and NO levels were measured using assay kits from Cayman Chemicals (Ann Harbor, Mich.).
(§3) Results are summarized in Table 2, with data represented as % inhibition of inflammatory mediator production.

Experiment [2] has as its system LPS-mediated MIP-1α production in THP-1 cells. Briefly: LPS-mediated MIP-1α production in THP-1 cells. Particulars: Homo sapiens; 12.5 μM test compound; THP-1 cells, LPS 1 μg/ml; NI = no inhibition. Here is the method: as §1
(§4) The effect of the THIAA derivatives on LPS-mediated MMP-9, IL-1β, ([…], MCP-1, RANTES, and MIP-1α was evaluated in THP-1 cells. Stimulation of THP-1 cells with LPS (1 μg/ml) activated the production of MMP-9, IL-1β, MCP-1, RANTES, and MIP-1α.
as §3

Experiment [3] concerns LPS-mediated nitric oxide (NO) production in RAW264.7 cells. The experiment can be described thus: LPS-mediated NO production in RAW264.7 murine macrophage model. Particulars: Mus musculus, 12.5 μM test compound, LPS 1 μg/ml, NI = no inhibition. Here is the method: as §1, §2, §3
The test system of experiment [4] is LPS-mediated RANTES production in THP-1 cells. The experiment can be described thus: LPS-mediated RANTES production in THP-1 cells. Particulars: Homo sapiens; 12.5 μM test compound; THP-1 cells, LPS 1 μg/ml; NI = no inhibition. Here is the method:
as §1, §4, §3

The test system of experiment [5] is LPS-mediated inflammatory mediators in RAW264.7 and THP-1 cells. Briefly: Mean inhibition across all six inflammatory mediators. Particulars: 12.5 μM test compound. Here is the method:
as §2, §4, §3
Mean inhibition across all six inflammatory mediators was calculated for each of the THIAA derivatives.

The target in the next experiment is T1, PPARγ (Homo sapiens, UniProt P37231).
T1 sequence (P37231 1-505): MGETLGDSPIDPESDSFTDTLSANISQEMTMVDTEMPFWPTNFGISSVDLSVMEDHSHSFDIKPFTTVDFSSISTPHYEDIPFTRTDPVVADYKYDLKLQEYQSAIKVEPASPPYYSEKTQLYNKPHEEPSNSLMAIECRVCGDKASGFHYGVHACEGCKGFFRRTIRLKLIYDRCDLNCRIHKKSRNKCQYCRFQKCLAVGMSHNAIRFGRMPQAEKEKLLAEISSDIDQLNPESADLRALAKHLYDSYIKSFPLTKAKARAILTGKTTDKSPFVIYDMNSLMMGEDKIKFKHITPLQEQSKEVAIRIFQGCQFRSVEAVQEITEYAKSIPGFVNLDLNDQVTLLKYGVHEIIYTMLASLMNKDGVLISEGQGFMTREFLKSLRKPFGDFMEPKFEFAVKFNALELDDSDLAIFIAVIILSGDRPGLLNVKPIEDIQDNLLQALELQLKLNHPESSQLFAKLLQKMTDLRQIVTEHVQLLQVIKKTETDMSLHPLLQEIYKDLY
The experiment can be described thus: PPARγ reporter assay (INDIGO Biosciences). Conditions: 20 h. As for the experimental part:
(§5) The functional effect of THIAA derivatives on PPARα and PPARγ activity was evaluated using a PPAR reporter assay (INDIGO Biosciences, Pa.). This assay utilizes non-human mammalian cells engineered to provide constitutive high level expression of PPARα, or PPARγ and containing a luciferase report gene specific to the appropriate PPAR. Following activation by agonist binding, PPAR induces expression of the luciferase reporter gene. Luciferase activity therefore provides a surrogate for measuring PPAR activity in agonist-treated cells.
(§6) 0.1% DMSO was used as a solvent control for each assay. Plates were incubated for 20 hours in a humidified incubator at 37° C. and 5% CO2. After incubation, the cell medium was discarded and the cells were treated with 100 μL of luciferase detection reagent for 15 minutes. Plates were analyzed using a luminometer (Victor2, Perkin Elmer). Average relative light unit (RLU) and standard deviation were measured.
Background: Reporter assays use an easily measured gene product as a stand-in for the process of interest.

Experiment [6] has as its system LPS-mediated MCP-1 production in THP-1 cells. The experiment can be described thus: LPS-mediated MCP-1 production in THP-1 cells. Particulars: Homo sapiens; 12.5 μM test compound; THP-1 cells, LPS 1 μg/ml; NI = no inhibition. As for the experimental part: as §1, §4, §3
For a further experiment, the target named is T2, PPARα (Homo sapiens, UniProt Q07869).
T2 sequence (Q07869 1-468): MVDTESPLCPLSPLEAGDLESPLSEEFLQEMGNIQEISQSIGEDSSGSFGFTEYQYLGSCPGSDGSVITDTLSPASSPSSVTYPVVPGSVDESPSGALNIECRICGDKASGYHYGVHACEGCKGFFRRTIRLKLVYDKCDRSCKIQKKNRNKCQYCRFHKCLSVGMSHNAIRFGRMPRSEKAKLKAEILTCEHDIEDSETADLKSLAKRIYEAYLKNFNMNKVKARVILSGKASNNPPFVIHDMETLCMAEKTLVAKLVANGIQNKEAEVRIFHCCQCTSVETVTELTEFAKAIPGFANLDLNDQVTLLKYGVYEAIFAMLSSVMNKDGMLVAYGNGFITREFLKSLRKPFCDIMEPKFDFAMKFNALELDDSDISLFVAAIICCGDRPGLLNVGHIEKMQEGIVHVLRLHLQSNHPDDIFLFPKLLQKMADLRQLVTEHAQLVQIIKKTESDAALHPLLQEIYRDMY
The experiment can be described thus: PPARα reporter assay (INDIGO Biosciences). Particulars: for Emax at 12.5 µM: read-out: PPARα % GW590735 (20.6 nM). Here is the method:
as §5, §6

The subject of experiment [7] is LPS-mediated IL-6 production in THP-1 cells. The experiment can be described thus: LPS-mediated IL-6 production in THP-1 cells. Conditions: Homo sapiens; 12.5 μM test compound; THP-1 cells, LPS 1 μg/ml; NI = no inhibition. As for the experimental part: as §1, §4, §3
Setting [8] is: read-out: PPARγ % rosiglitazone (500 nM), 12.5 μM test compound, luciferase reporter cells, 20 hours, activity compared to rosiglitazone.
[9] abbreviates: 12.5 μM test compound, luciferase reporter cells, 20 hours, activity compared to GW590735.

What is called inhibition is how much of the control response was suppressed. A higher inhibition goes with strong suppression.

Where two headings read alike, the source gives them in different places. Some results are limits rather than exact numbers.

`CCCCCCCCCC(=O)O[C@]1(C(=O)CCC(C)C)C(O)=C(C(=O)C(C)C)C(=O)[C@@H]1CCC(C)C` [KDT0036, (1S,5R)-2-hydroxy-5-(3-methylbutyl)-1-(4-methylpentanoyl)-3-(2-methylpropanoyl)-4-oxocyclopent-2-en-1-yl decanoate]: the inhibition at 12.5 µM is 45% in [1]; 25% in experiment [2]; 97% in experiment [3] (RAW264.7, 16 h); 88% in experiment [4]; 73% in [5]; 98% in experiment [6]. Further, the inhibition at 12.5 µM in experiment [7] came to 83%. The results for the Emax at 12.5 µM at PPARγ (setting [8]) and on PPARα (setting [9]) were no less than 5% and less than 5%, respectively. Moreover, the “PPARα % GW590735 (20.6 nM)” value at PPARα (setting [9]) is reported as “no effect”.
Turning to `CC(C)CCC(=O)[C@@]1(O)C(O)=C(C(=O)CC(C)C)C(=O)[C@H]1CCC(C)C` [KDT700, (4S,5S)-3,4-dihydroxy-2-(3-methylbutanoyl)-5-(3-methylbutyl)-4-(4-methylpentanoyl)cyclopent-2-en-1-one], the inhibition at 12.5 µM in experiment [1] is less than 20%; in experiment [2] it was 36%; in experiment [3] (RAW264.7, 16 h), less than 0%; in experiment [4], 64%; in experiment [5], 34%; in experiment [6], 88%. For the same molecule, in experiment [7], the inhibition at 12.5 µM was less than 20%. The Emax at 12.5 µM on PPARγ (setting [8]) and on PPARα (setting [9]) was less than 5% throughout.
On to `CC(C)CCC(=O)[C@@]1(O)C([O-])=C(C(=O)CC(C)C)C(=O)[C@@H]1CCC(C)C.[K+]` (stereo in doubt) [KDT501, Potassium salt of (+)-KDT500], for which, in experiment [1] (6 hours), the “% inhibition of PGE2 production” value was “No inhibition (NI)”. Moreover, the inhibition at 12.5 µM in experiment [2] was 62%; in experiment [3] (16 hours) it was 23%; in [4], 77%; in [5] it was 48%; in experiment [6], 77%; in experiment [7] it was 49%. The Emax at 12.5 µM at PPARγ (read-out: PPARγ % rosiglitazone (500 nM)) was 31%; at PPARα (20 h), less than 5%.
Regarding `CC(C)CC[C@H]1C(=O)C(C(=O)CC(C)C)=C(O)[C@]1(O)C(=O)CCC(C)C(=O)O` (stereo partly drawn) [KDT0038, 5-[(1S,5R)-1,2-dihydroxy-3-(3-methylbutanoyl)-5-(3-methylbutyl)-4-oxocyclopent-2-en-1-yl]-2-methyl-5-oxopentanoic Acid], the inhibition at 12.5 µM in [1] was less than 0%; in experiment [2], less than 0%; in [3] (RAW264.7, 16 h), less than 0%; in experiment [4] it was less than 20%; in experiment [5], less than 20%; in experiment [6], 46%. The inhibition at 12.5 µM in experiment [7] was less than 0%. In addition, the Emax at 12.5 µM on PPARγ (setting [8]) and on PPARα (setting [9]) was less than 5% in each case.
For the molecule `CO/N=C(/CC(C)C)C1=C(O)[C@](O)(C(O)CCC(C)C)[C@@H](CCC(C)C)C1=O` (stereo partly drawn) [KDT0005, (4R,5R)-3,4-dihydroxy-4-(1-hydroxy-4-methylpentyl)-2-(N-methoxy-3-methylbutanimidoyl)-5-(3-methylbutyl)cyclopent-2-en-1-one], the inhibition at 12.5 µM in experiment [1] is less than 0%; in [2] it was 20%; in experiment [3] (RAW264.7, 16 h), less than 0%; in experiment [4], 25%; in experiment [5] it was less than 20%; in experiment [6] it was 38%. Further, the inhibition at 12.5 µM in experiment [7] was less than 20%. The Emax at 12.5 µM at PPARγ (setting [8]) and at PPARα (setting [9]) was less than 5% each time.

These data come from patent US10343977B2, “Tetrahydro-isohumulone derivatives, methods of making and using” (KINDEX PHARMACEUTICALS, INC., priority 2012, dated 2019).
